Measurements published in patent publication US6333447A, “Transgenic model of heart failure” (The General Hospital Corporation, priority 1996, dated 2001).

Columns and labels:
[1] = system: mice; conditions: chronic administration; cited from earlier work
[2] = system: transgenic (Gsα overexpressing) and control mice; assay: M-mode echocardiography and ECG during graded intravenous infusion of sympathomimetic amines in anesthetized mice
[3] = system: rats; conditions: infusion for several weeks; cited from earlier work
[4] = system: transgenic (Gsα overexpressing) and wild-type control mice; assay: Left ventricular contractility (LV dP/dt) by Millar micromanometer with heart rate held constant by pacing
[5] = TG mice, isoproterenol infusion 0.005 μg/kg/min
[6] = TG mice, isoproterenol infusion 0.01 μg/kg/min
[7] = TG mice, isoproterenol infusion 0.02 μg/kg/min
[8] = TG mice, isoproterenol infusion 0.02 μg/kg/min, listed as Isoproterenol
[9] = control mice, isoproterenol infusion 0.01 μg/kg/min
[10] = control mice, isoproterenol infusion 0.02 μg/kg/min
[11] = control mice, isoproterenol infusion 0.02 μg/kg/min, listed as Isoproterenol
[12] = control mice, isoproterenol infusion 0.04 μg/kg/min
[13] = TG mice, norepinephrine infusion 0.05 μg/kg/min
[14] = TG mice, norepinephrine infusion 0.1 μg/kg/min
[15] = TG mice, norepinephrine infusion 0.2 μg/kg/min
[16] = TG mice, norepinephrine infusion 0.2 μg/kg/min, listed as Norepinephrine
[17] = control mice, norepinephrine infusion 0.1 μg/kg/min
[18] = control mice, norepinephrine infusion 0.2 μg/kg/min
[19] = control mice, norepinephrine infusion 0.2 μg/kg/min, listed as Norepinephrine
[20] = control mice, norepinephrine infusion 0.4 μg/kg/min

SMILES: CC(C)NCC(O)c1ccc(O)c(O)c1 (centres unmarked) [isoproterenol]
- Hypertrophic response [1]: enhanced hypertrophic responses
- Ejection Fraction [2, 5]: 80.6 ± 3.2%
- Fractional Shortening [2, 5]: 42.5 ± 3.2%
- Heart Rate [2, 5]: 369 ± 12 beats/min
- LVID end-diastole [2, 5]: 3.5 ± 0.3 mm
- LVID end-systole [2, 5]: 2.0 ± 0.1 mm
- Ejection Fraction [2, 6]: 89.5 ± 2.6%
- Fractional Shortening [2, 6]: 53.5 ± 3.5%
- Heart Rate [2, 6]: 389 ± 10 beats/min
- LVID end-diastole [2, 6]: 3.4 ± 0.2 mm
- LVID end-systole [2, 6]: 1.6 ± 0.1 mm
- Ejection Fraction [2, 7]: 96±1%
- Fractional Shortening [2, 7]: 68±4%
- Heart Rate [2, 7]: 433 beats/min
- LVID end-diastole [2, 7]: 3.1 mm
- LVID end-systole [2, 7]: 1.0 ± 0.1 mm
- Ejection Fraction [2, 8]: 96.3 ± 1.3%
- Fractional Shortening [2, 8]: 67.9 ± 4.2%
- Ejection Fraction [2, 9]: 76.7 ± 1.2%
- Fractional Shortening [2, 9]: 38.5 ± 1.1%
- Heart Rate [2, 9]: 213 ± 16 beats/min
- LVID end-diastole [2, 9]: 4.0 ± 0.1 mm
- LVID end-systole [2, 9]: 2.4 ± 0.0 mm
- Ejection Fraction [2, 10]: 86±3%
- Fractional Shortening [2, 10]: 48±3%
- Heart Rate [2, 10]: 236 ± 8 beats/min
- LVID end-diastole [2, 10]: 3.9 ± 0.1 mm
- LVID end-systole [2, 10]: 2.0 mm
- Ejection Fraction [2, 11]: 85.8%
- Fractional Shortening [2, 11]: 48.3%
- Ejection Fraction [2, 12]: 94.1 ± 2.0%
- Fractional Shortening [2, 12]: 62.8 ± 5.7%
- Heart Rate [2, 12]: 289 beats/min
- LVID end-diastole [2, 12]: 3.6 ± 0.1 mm
- LVID end-systole [2, 12]: 1.3 ± 0.2 mm
- Left ventricular end-diastolic dimensions ([2]; increasing doses of isoproterenol, both groups): decreased dose-dependently
- Myocardial pathology [3]: myocardial hypertrophy with cellular necrosis and replacement fibrosis
- Increase of left ventricular contractility (LV dP/dt) from baseline ([4]; transgenic mice, heart rate held constant (9.0-0.6 Hz), isoproterenol 0.02 μg/kg/min): 33±2%
- Increase of left ventricular contractility (LV dP/dt) from baseline ([4]; wild-type control mice, heart rate held constant (8.0±0.0 Hz), isoproterenol 0.02 μg/kg/min, baseline 6923±281 mm Hg/sec): 13±2%

SMILES: NC[C@H](O)c1ccc(O)c(O)c1 [norepinephrine]
- Ejection Fraction [2, 13]: 79.8 ± 4.0%
- Fractional Shortening [2, 13]: 41.9 ± 3.9%
- Heart Rate [2, 13]: 320 ± 13 beats/min
- LVID end-diastole [2, 13]: 3.6 ± 0.1 mm
- LVID end-systole [2, 13]: 2.1 ± 0.1 mm
- Ejection Fraction [2, 14]: 88.3 ± 3.8%
- Fractional Shortening [2, 14]: 52.2 ± 4.8%
- Heart Rate [2, 14]: 322 ± 16 beats/min
- LVID end-diastole [2, 14]: 3.6 ± 0.2 mm
- LVID end-systole [2, 14]: 1.7 ± 0.2 mm
- Ejection Fraction [2, 15]: 93±2%
- Fractional Shortening [2, 15]: 59±4%
- Heart Rate [2, 15]: 341 ± 18 beats/min
- LVID end-diastole [2, 15]: 3.6 mm
- LVID end-systole [2, 15]: 1.5 ± 0.2 mm
- Ejection Fraction [2, 16]: 92.8 ± 2.1%
- Fractional Shortening [2, 16]: 59.4 ± 4.1%
- Ejection Fraction [2, 17]: 78.3 ± 0.1%
- Fractional Shortening [2, 17]: 39.9 ± 0.5%
- Heart Rate [2, 17]: 241 ± 27 beats/min
- LVID end-diastole [2, 17]: 4.0 ± 0.1 mm
- LVID end-systole [2, 17]: 2.4 ± 0.1 mm
- Ejection Fraction [2, 18]: 85±3%
- Fractional Shortening [2, 18]: 47±3%
- Heart Rate [2, 18]: 252 ± 33 beats/min
- LVID end-diastole [2, 18]: 4.1 ± 0.1 mm
- LVID end-systole [2, 18]: 2.2 mm
- Ejection Fraction [2, 19]: 84.8%
- Fractional Shortening [2, 19]: 47.0%
- Ejection Fraction [2, 20]: 92.3 ± 2.0%
- Fractional Shortening [2, 20]: 58.2 ± 3.9%
- Heart Rate [2, 20]: 272 ± 44 beats/min
- LVID end-diastole [2, 20]: 4.0 ± 0.1 mm
- LVID end-systole [2, 20]: 1.7 ± 0.2 mm
- Chronotropic effect ([2]; norepinephrine infusion, either group (control or transgenic)): no significant chronotropic effect
- Effect on left ventricular end-diastolic dimensions ([2]; norepinephrine infusion, transgenic or control group): no effect
- Increase of left ventricular contractility (LV dP/dt) from baseline ([4]; transgenic mice, heart rate held constant (8.3±1.2 Hz), norepinephrine 0.1 μg/kg/min): 65±8%
- Increase of left ventricular contractility (LV dP/dt) from baseline ([4]; wild-type control mice, heart rate held constant (6.0±0.0 Hz), norepinephrine 0.1 μg/kg/min, baseline 7292±461 mm Hg/sec): 28±4%
